Consider five molecules from patent publication EP0563732A1, “7-oxo-7H-pyrido(1,2,3-de)(1,4)benzoxazinecarboxylic acids and esters and their use as antiviral agents” (BAYER AG, priority 1992, dated 1993).

Structures can show the parent of a compound that is named as a salt.

This assay concerns Hepatitis B Virus. Put plainly: HBV test system: HBV-DNA in the supernatant of transfected hepatoma cells (PEG precipitation, non-radioactive HBV DNA probe). The format is cell-based. Conditions: HepG2.2.15, 50% inhibition of HBV-DNA concentration in supernatant, HEP G2.2.15 cells, read-out: IC₅₀. From the text: Der Nachweis wurde in mit Hepatitis B Virus DNA transfizierten Hepatomzellen (HEP G2.2.15) geführt. Die Ergebnisse der unten aufgeführten Beispiele wurden zu dem in der folgenden Literaturangabe [Sells, M.A.; Chen, M.L., Acs, G., Proc. Natl. Acad. Sci. USA S. 1005 - 1009, Vol. 84 (1987] beschriebenen HBV-Testsystem ermittelt:
Transfizierte Hepatomzellen (HEP G2.2.15) wurden mit verschiedenen Konzentrationen an der jeweiligen Verbindung inkubiert. Durch Behandlung der transfizierten Hepatomzellinie HEP G2.2.15 mit den erfindungsgemäßen Verbindungen konnte das […] der virusspezifischen HBV-DNA im Überstand sowie eine Reduktion des HBsAg Spiegels gezeigt werden. Es wurde weiter gefunden, daß die erfindungsgemäßen Verbindungen zu einer Reduktion der replikativen Intermediate der Hepatitisviren führen. Im Überstand der Zellkulturen wurde nach PEG Fällung der Gehalt an HBV-DNA bestimmt. Dies geschah unter Verwendung einer nicht radioaktiv markierten HBV genomischen DNA Probe [Pauly, P., 1982, Ph.D. Thesis, University of Göttingen, F.R.G.; Köchel et al., 1990, EMBL, Accession-Nr. X 51790]. Gleichzeitig erfolgte der Nachweis der Beeinflussung der HBsAg Bildung mittels eines kommerziell erhältlichen Elisa Tests. Die angegebenen IC₅₀-Werte beziehen sich auf die Substratkonzentrationen, die unter den oben aufgeführten Testbedingungen eine 50%ige Hemmung der HBV-DNA Konzentration im Überstand bewirken. Tabelle A
Gleichzeitig erfolgte die Bestimmung des möglicherweise vorhandenen cytotoxischen Einflusses der erfindungsgemäßen Verbindungen mittels Kristallviolettfärbung bzw. über den Einbau von radioaktiv markiertem Thymidin in die zelluläre DNA.
Turning to `CN1CCN(c2c(F)cc3c(=O)c(C(=O)O)cn4c3c2OC(C(C)(C)C)=C4)CC1` [Beispiel 1, 2-tert-Butyl-9-fluor-10-(4-methyl-1-piperazinyl)-7-oxo-7H-pyrido[1,2,3-de][1,4]-benzoxacin-6-carbonsäure], the IC50 is 100 nM. Next, `CC1=COc2c(N3CCOCC3)c(F)cc3c(=O)c(C(=O)O)cn1c23` [Beispiel 16]: 5000 nM; `COC(=O)c1cn2c3c(c(N4CCNCC4)c(F)cc3c1=O)OC=C2C` [Beispiel 33]: 500 nM; `CCOC(=O)c1cn2c3c(c(N4CCC(N)C4)c(F)cc3c1=O)OC(c1ccc(OC)cc1)=C2` (centres unmarked) [Beispiel 38, 10-(3-Amino-1-pyrrolidinyl)-9-fluor-2-(4-methoxyphenyl)-7-oxo-7H-pyrido[1,2,3-de][1,4]benzoxacin-6-carbonsäureethylester-hydrochlorid]: 5000 nM. The result for `CC1=COc2c(N3CCNCC3)c(F)cc3c(=O)c(C(=O)O)cn1c23` [Beispiel 39] reads 100 nM.
